Experimental data taken from ChEMBL document CHEMBL3784965, “Discovery of (R)-6-(1-(8-Fluoro-6-(1-methyl-1H-pyrazol-4-yl)-[1,2,4]triazolo[4,3-a]pyridin-3-yl)ethyl)-3-(2-methoxyethoxy)-1,6-naphthyridin-5(6H)-one (AMG 337), a Potent and Selective Inhibitor of MET with High Unbound Target Coverage and Robust In Vivo Antitumor Activity” (J Med Chem, 2016).
pIC50: −log10 of the molar value. In brackets after ≈: the same amount, converted by molar mass.

Experiments:
[1] = Fraction unbound in Sprague-Dawley rat plasma at 5 ug/ml by equilibrium dialysis method; type: ADME, cell-free
[2] = Fraction unbound in human plasma at 5 ug/ml by equilibrium dialysis method; type: ADME, cell-free
[3] = system: Mus musculus; assay: In vivo inhibition of HGF-induced phosphorylation of MET in Balb/c mouse liver assessed as phosphorylated cMET level at 10 mg/kg administered via oral gavage followed by HGF injection 3 hrs post dose by electrochemiluminescence immunoassay relative to control; type: functional; parameters: scale not given: the % may be the effect or the level left
[4] = Oral bioavailability in Sprague-Dawley rat at 2 mg/kg; type: ADME, organism-based; conditions: in vivo
[5] = system: Mus musculus; assay: In vivo inhibition of HGF-induced phosphorylation of MET in Balb/c mouse liver assessed as phosphorylated cMET level at 10 mg/kg administered via oral gavage followed by HGF injection 6 hrs post dose by electrochemiluminescence immunoassay relative to control; type: functional; parameters: scale not given: the % may be the effect or the level left
[6] = system: Mus musculus; assay: In vivo inhibition of HGF-induced phosphorylation of MET in Balb/c mouse liver assessed as phosphorylated cMET level at 10 mg/kg administered via oral gavage followed by HGF injection 12 hrs post dose by electrochemiluminescence immunoassay relative to control; type: functional; parameters: scale not given: the % may be the effect or the level left
[7] = Half life in Sprague-Dawley rat; type: ADME, organism-based; conditions: in vivo
[8] = system: Mus musculus; assay: In vivo inhibition of HGF-induced phosphorylation of MET in Balb/c mouse liver assessed as phosphorylated cMET level at 10 mg/kg administered via oral gavage followed by HGF injection 9 hrs post dose by electrochemiluminescence immunoassay relative to control; type: functional; parameters: scale not given: the % may be the effect or the level left
[9] = Intrinsic clearance in human liver microsomes; type: ADME; conditions: read-out: CLH
[10] = Fraction unbound in mouse plasma at 5 ug/ml by equilibrium dialysis method; type: ADME, cell-free
[11] = Intrinsic clearance in rat liver microsomes; type: ADME; conditions: read-out: CLH
[12] = system: Mus musculus; assay: In vivo inhibition of HGF-induced phosphorylation of MET in Balb/c mouse liver assessed as phosphorylated cMET level at 10 mg/kg administered via oral gavage followed by HGF injection 24 hrs post dose by electrochemiluminescence immunoassay relative to control; type: functional; parameters: scale not given: the % may be the effect or the level left
[13] = Volume of distribution at steady state in Sprague-Dawley rat; type: ADME, organism-based; conditions: in vivo, read-out: Vdss
[14] = Intrinsic clearance in mouse liver microsomes; type: ADME; conditions: read-out: CLH
[15] = Clearance in Sprague-Dawley rat at 0.25 mg/kg, iv; type: ADME, organism-based; conditions: in vivo
[16] = system: Mus musculus; assay: In vivo inhibition of HGF-induced phosphorylation of MET in Balb/c mouse liver assessed as phosphorylated cMET level at 10 mg/kg administered via oral gavage followed by HGF injection 1 hr post dose by electrochemiluminescence immunoassay relative to control; type: functional; parameters: scale not given: the % may be the effect or the level left
[17] = species on record: Rattus norvegicus; assay: Unbound clearance in Sprague-Dawley rat at 5 ug/ml by equilibrium dialysis method; type: ADME, organism-based; conditions: in vivo
[18] = Solubility of compound in PBS; type: physicochemical
[19] = biological target: CYP3A4 (Homo sapiens, UniProt P08684); assay: (§1) Inhibition of CYP3A4 (unknown origin) in presence of NADPH; type: ADME
[20] = system: Plasma; assay: Unbound plasma concentration in Balb/c mouse at 30 mg/kg, administered via oral gavage measured at 6 hrs; type: ADME, organism-based; conditions: in vivo
[21] = system: Mus musculus; assay: In vivo inhibition of HGF-induced phosphorylation of MET in Balb/c mouse liver assessed as time required for >90% inhibition at 30 mg/kg administered via oral gavage; type: functional
[22] = Solubility of compound in SIF; type: physicochemical
[23] = Solubility of compound in 0.01 N HCl; type: physicochemical
[24] = biological target: Hepatocyte growth factor receptor (Homo sapiens, UniProt P08581)
Description: Inhibition of HGF-mediated MET autophosphorylation in human PC3 cells preincubated for 1 hr followed by stimulation with human HGF measured after 10 mins by electrochemiluminescence immunoassay

[25] = Clearance in Sprague-Dawley rat at 0.3 mg/kg, iv; type: ADME, organism-based; conditions: in vivo
[26] = biological target: T1, Cytochrome P450 3A4 (Homo sapiens, UniProt P08684); assay: as §1; type: ADME
[27] = system: Plasma; assay: Unbound plasma concentration in Balb/c mouse at 10 mg/kg, administered via oral gavage measured at 6 hrs; type: ADME, organism-based; conditions: in vivo
[28] = system: Mus musculus; assay: In vivo inhibition of HGF-induced phosphorylation of MET in Balb/c mouse liver assessed as time required for >90% inhibition at 10 mg/kg administered via oral gavage; type: functional
[29] = biological target: T1, Cytochrome P450 3A4; assay: Inhibition of CYP3A4 (unknown origin) in absence of NADPH; type: ADME
[30] = Half life in iv dosed Beagle dog; type: ADME, organism-based, Canis lupus familiaris; conditions: in vivo
[31] = species on record: Canis familiaris; assay: Unbound clearance in Beagle dog at 5 ug/ml by equilibrium dialysis method; type: ADME, organism-based, Canis lupus familiaris; conditions: in vivo
[32] = Volume of distribution at steady state in iv dosed Beagle dog; type: ADME, organism-based, Canis lupus familiaris; conditions: in vivo, read-out: Vdss
[33] = Clearance in Beagle dog at 0.425 mg/kg, iv; type: ADME, organism-based, Canis lupus familiaris; conditions: in vivo
[34] = Oral bioavailability in Beagle dog at 30 mg/kg; type: ADME, organism-based, Canis lupus familiaris; conditions: in vivo
[35] = AUC(0 to infinity) in Beagle dog at 30 mg/kg, po; type: ADME, organism-based, Canis lupus familiaris; parameters: dose 30 mg/kg, time infinity, route oral; conditions: in vivo
[36] = Oral bioavailability in Beagle dog at 10 mg/kg; type: ADME, organism-based, Canis lupus familiaris; conditions: in vivo
[37] = AUC(0 to infinity) in Beagle dog at 10 mg/kg,po; type: ADME, organism-based, Canis lupus familiaris; parameters: dose 10 mg/kg, route oral, time infinity; conditions: in vivo
[38] = system: Plasma; assay: Unbound plasma concentration in Balb/c mouse at 10 mg/kg, administered via oral gavage measured at 12 hrs; type: ADME, organism-based; conditions: in vivo

| SMILES | fraction unbound at 5 ug/ml [1] | fraction unbound at 5 ug/ml [2] | bioavailability [4] [%] | half-life [7] [h] | microsomal CLint [9] [µL/min/mg] | fraction unbound at 5 ug/ml [10] | microsomal CLint [11] [µL/min/mg] | Vd [13] [L/kg] | microsomal CLint [14] [µL/min/mg] | clearance [15] [L/h/kg] | CL free [17] [L/h/kg] | solubility [18] [mg/mL] | also measured |
| --- | --- | --- | --- | --- | --- | --- | --- | --- | --- | --- | --- | --- | --- |
| COCCOc1cnc2ccn([C@H](C)c3nnc4c(F)cc(-c5cc(C)no5)cn34)c(=O)c2c1 | 0.08 | 0.409 | 54 | 2.9 | 20 | 0.317 | 16 | 0.7 | 14 | 0.2 | 2.4 | – | Activity [3]: 100%; Activity [5]: 99%; Activity [6]: 51%; Activity [8]: 99%; Activity [12]: 28%; Activity [16]: 101% |
| COCCOc1cnc2ccn([C@H](C)c3nnc4ccc(-c5cnn(C)c5)cn34)c(=O)c2c1 | 0.296 | 0.498 | 25 | 1.8 | 8 | 0.424 | < 5 | 1.3 | 7 | 0.7 | 2.4 | – | – |
| COc1cnc2ccn([C@H](C)c3nnc4c(F)cc(-c5cc(C)no5)cn34)c(=O)c2c1 | – | – | 31 | 1.1 | – | – | – | 0.5 | – | 0.46 | – | – | – |
| COc1cnc2c(NCc3nnc4ccc(-c5cc(C)ns5)nn34)ccnc2c1 | – | – | – | 1.8 | – | – | – | – | – | 0.19 | 26 | 0.003 (≈ 7.42 µM) | pIC50 [19]: < 4.30; Cp(f) [20]: 0.009 µM; Time [21]: 6 h; solubility [22]: 0.013 mg/mL (≈ 32.1 µM); solubility [23]: > 0.2 mg/mL |
| COc1cnc2ccn([C@H](C)c3nnc4ccc(-c5cnn(C)c5)cn34)c(=O)c2c1 | 0.206 | 0.286 | 36 | 1.7 | < 5 | 0.409 | 9 | 1.2 | 7 | 0.65 | 3.2 | – | – |
| COc1cnc2ccn([C@H](C)c3nnc4c(F)cc(-c5cnn(C)c5)cn34)c(=O)c2c1 | 0.139 | 0.309 | 43 | 3.6 | < 5 | 0.353 | 12 | 0.5 | 7 | 0.12 | 0.9 | – | – |
| COc1ccc2c(OCc3nnc4ccc(-c5cc(F)c(F)c(F)c5)nn34)ccnc2c1 | – | – | – | 3.5 | – | – | – | – | – | – | 58 | 0.004 (≈ 9.15 µM) | pIC50 [24]: 8.10; Cp(f) [20]: 0.034 µM; Time [21]: 6 h; clearance [25]: 0.06 L/h/kg; solubility [22]: 0.017 mg/mL (≈ 38.9 µM); solubility [23]: 0.085 mg/mL (≈ 194 µM) |
| COCCOc1cnc2ccc([C@H](C)c3nnc4c(F)cc(-c5cc(C)no5)cn34)cc2c1 | – | – | – | 4.2 | – | – | – | – | – | – | 26 | 0.052 (≈ 116 µM) | pIC50 [26]: < 4.30; Cp(f) [27]: 0.141 µM; Time [28]: 6 h; solubility [22]: 0.126 mg/mL (≈ 282 µM); pIC50 [29]: < 4.30; solubility [23]: > 0.2 mg/mL |
| COCCOc1cnc2ccn([C@H](C)c3nnc4ccc(-c5cc(C)no5)cn34)c(=O)c2c1 | 0.19 | 0.338 | 59 | 2.4 | 7 | 0.435 | 9 | 1 | 23 | 0.29 | 1.5 | – | half-life [30]: 4.3 h; Activity [3]: 109%; Activity [5]: 108%; Activity [6]: 95%; CL free [31]: 0.68 L/h/kg; Vd [32]: 1.4 L/kg; Activity [8]: 108%; clearance [33]: 0.3 L/h/kg; bioavailability [34]: 87%; Activity [12]: 50%; Activity [16]: 109%; AUC(0-inf) [35]: 94.1 µg·h/mL; bioavailability [36]: 53%; AUC(0-inf) [37]: 19.3 µg·h/mL |
| C[C@H](c1nnc2c(F)cc(-c3cnn(C)c3)cn12)n1ccc2ncccc2c1=O | 0.271 | 0.478 | 31 | 4 | < 5 | 0.376 | 8 | 0.7 | < 5 | 0.28 | 1 | – | – |
| COCCOc1cnc2ccc([C@H](C)n3nnc4ccn(-c5cc(C)ns5)c(=O)c43)cc2c1 | – | – | – | 3.4 | – | – | – | – | – | – | 31 | 0.009 (≈ 19.5 µM) | pIC50 [26]: 4.68; Time [28]: 12 h; pIC50 [29]: 4.68; Cp(f) [38]: 0.02 µM |
